As usually defined, the Ki is a dissociation constant, usually derived from enzyme kinetics or from competition with a known ligand. Usually AUC(0-t) stands for the area under the concentration-time curve up to a stated or last time point. The term half-life denotes the time needed for the level to fall by half in the phase considered. By IC50 is commonly meant the concentration that inhibits the measured activity by half.

The text below walks through data of ChEMBL document CHEMBL5032530, “Discovery of Benzocyclic Sulfone Derivatives as Potent CXCR2 Antagonists for Cancer Immunotherapy” (J Med Chem, 2021).

The target of data set [1] is T1, C-X-C chemokine receptor type 2 (Homo sapiens, UniProt P25025).
T1 sequence (P25025 whole entry): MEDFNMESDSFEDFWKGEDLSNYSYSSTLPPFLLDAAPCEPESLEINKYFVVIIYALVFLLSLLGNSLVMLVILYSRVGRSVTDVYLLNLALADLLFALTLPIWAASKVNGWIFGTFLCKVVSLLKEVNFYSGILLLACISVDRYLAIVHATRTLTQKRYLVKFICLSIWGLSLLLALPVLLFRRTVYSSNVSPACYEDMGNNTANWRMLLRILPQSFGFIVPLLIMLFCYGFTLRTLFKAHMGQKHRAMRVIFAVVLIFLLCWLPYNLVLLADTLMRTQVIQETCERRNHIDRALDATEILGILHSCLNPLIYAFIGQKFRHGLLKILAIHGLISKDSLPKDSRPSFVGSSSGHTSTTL
The data set is described as follows: Displacement of [I-125]-interleukin-8 against human recombinant CXCR2 expressed in CHO-K1 cells incubated for 60 mins by radio ligand binding assay. Format: cell-based.

Data set [2] deals with C-C chemokine receptor type 5 (Homo sapiens) (UniProt P51681). The experiment in a line: Antagonist activity against CCR5 (unknown origin) assessed as inhibition of beta-arrestin 2 recruitment at 10 microM by beta arrestin assay relative to control. Also noted: scale not given: the % may be the effect or the level left. Format: functional. A general note: Recruitment of arrestin is a read-out of receptor activation apart from second messengers.
C-C chemokine receptor type 5 (Homo sapiens), sequence (P51681 whole entry, looked up): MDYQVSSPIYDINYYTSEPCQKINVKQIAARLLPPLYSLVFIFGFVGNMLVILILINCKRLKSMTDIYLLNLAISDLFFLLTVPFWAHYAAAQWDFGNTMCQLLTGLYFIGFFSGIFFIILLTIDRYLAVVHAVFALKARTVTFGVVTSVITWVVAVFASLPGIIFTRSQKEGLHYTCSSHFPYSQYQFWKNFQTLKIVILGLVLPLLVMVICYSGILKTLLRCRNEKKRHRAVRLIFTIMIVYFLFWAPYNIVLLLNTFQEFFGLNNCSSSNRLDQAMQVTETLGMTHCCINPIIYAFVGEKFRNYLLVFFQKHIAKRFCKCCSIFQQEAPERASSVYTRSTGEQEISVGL

Data set [3] has as its target C-C chemokine receptor type 6 (Homo sapiens) (UniProt P51684). The data set is described as follows: Antagonist activity against CCR6 (unknown origin) assessed as inhibition of beta-arrestin 2 recruitment at 10 microM by beta arrestin assay relative to control. The format is functional. Further details: scale not given: the % may be the effect or the level left.
Data set [4] concerns the target C-X-C chemokine receptor type 6 (Homo sapiens) (UniProt O00574). The data set is described as follows: Agonist activity against CXCR6 (unknown origin) assessed as induction of beta-arrestin 2 recruitment at 10 microM by beta arrestin assay relative to control. The format is functional.
The target is the same in data set [5]. The data set is described as follows: Antagonist activity against CXCR6 (unknown origin) assessed as inhibition of beta-arrestin 2 recruitment at 10 microM by beta arrestin assay relative to control. The format is functional. Further details: scale not given: the % may be the effect or the level left.
Data set [6] in a line: AUC (0 to t) in ICR mouse at 3 mg/kg, iv measured upto 48 hrs. Format: ADME, organism-based. Also noted: route intravenous, dose 3 mg/kg, time <=48. The settings on record: in vivo.
Data set [7] can be described thus: Half life in ICR mouse at 3 mg/kg, iv measured upto 48 hrs. The format is ADME, organism-based. The following applies: in vivo.
The nature of data set [8]: Half life in ICR mouse at 30 mg/kg, po measured upto 48 hrs. The format is ADME, organism-based. The following applies: ICR, in vivo.
The nature of data set [9]: Apparent volume of distribution in ICR mouse at 3 mg/kg, iv measured upto 48 hrs. The format is ADME, organism-based. The following applies: in vivo, read-out: Vz.
For another data set, the system named is BXPC-3. The experiment in a line: Cytotoxicity against human BxPC3 cells assessed as reduction in cell viability measured after 72 hrs by CCK8 assay. Format: cell-based. The following applies: BXPC-3, 72 h. In general terms: Tetrazolium dyes change colour on reduction, which living cells bring about.
For data set [10], the system named is Panc02. The experiment in a line: Antitumour activity against mouse Panc02 cells xenografted in mouse assessed as change in CD45 expressing immune cells infiltration into tumor tissue at 10 mg/kg, po bid measured after 15 days by flow cytometry analysis (reference value: 2.3%). The format is functional. The following applies: time 15 day. (In general: Flow cytometry measures light scatter and fluorescence of single cells or particles in a stream.)

Data set [11] relates to Panc02. The experiment in a line: Antitumour activity against mouse Panc02 cells xenografted in mouse assessed as reduction in infiltration of granulocytic MDSCs into tumor tissue at 30 mg/kg, po bid measured after 15 days by immunohistochemical analysis. The settings on record: time 15.0 day. Format: functional, organism-based.

Calls of active or inactive are those of the source.

C-X-C chemokine receptor type 6 (Homo sapiens), sequence (O00574 whole entry, looked up): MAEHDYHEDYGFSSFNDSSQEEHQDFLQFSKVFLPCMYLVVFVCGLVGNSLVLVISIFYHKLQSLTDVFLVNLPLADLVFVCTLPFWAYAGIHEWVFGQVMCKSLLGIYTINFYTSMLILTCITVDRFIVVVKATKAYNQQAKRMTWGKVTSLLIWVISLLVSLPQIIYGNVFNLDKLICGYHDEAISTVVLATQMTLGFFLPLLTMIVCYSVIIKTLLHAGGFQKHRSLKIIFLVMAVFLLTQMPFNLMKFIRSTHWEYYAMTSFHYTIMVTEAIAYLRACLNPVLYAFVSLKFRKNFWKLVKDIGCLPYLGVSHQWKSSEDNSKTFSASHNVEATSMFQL
C-C chemokine receptor type 6 (Homo sapiens), sequence (P51684 whole entry): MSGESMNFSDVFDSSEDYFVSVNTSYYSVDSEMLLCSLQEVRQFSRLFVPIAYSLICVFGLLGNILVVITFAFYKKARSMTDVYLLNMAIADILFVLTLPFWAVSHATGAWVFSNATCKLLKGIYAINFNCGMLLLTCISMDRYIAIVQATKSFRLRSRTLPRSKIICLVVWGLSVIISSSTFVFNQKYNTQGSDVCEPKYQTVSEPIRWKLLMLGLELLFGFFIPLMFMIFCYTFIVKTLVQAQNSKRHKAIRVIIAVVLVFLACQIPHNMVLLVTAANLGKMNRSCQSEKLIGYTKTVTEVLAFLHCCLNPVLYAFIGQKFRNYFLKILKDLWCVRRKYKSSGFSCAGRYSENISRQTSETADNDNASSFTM

As for `Cc1c(F)cccc1NC(=O)Nc1ccc2c(c1O)S(=O)(=O)CCC2`, the Ki in data set [1] was determined as 1240 nM. The Activity is less than 10% in [2]; less than 10% in data set [3]; less than 10% in data set [4]; 17% in [5]; 30.3% in the data set with Panc02 [10]. The AUC(0-t) at 48 h in data set [6] turned out to be 357 ng·h/mL. For the same compound, the half-life in data set [7] was 4.11 h; in data set [8] it was 4.94 h. Moreover, in [9], the Vd was 49 L/kg. The half-inhibitory concentration (IC50) in the data set with BXPC-3 is greater than 10000 nM. Moreover, the outcome with Panc02 [11] was Active.
